Results on 4 compounds are retold here after US11034725B2, “Compositions and methods for treating cardiovascular disease” (Genentech, Inc., priority 2016, dated 2021).

Bridge positions count the residues as written; N and C are the ends. Peptide text beside a SMILES is read from it. Where only a bound is given, the exact number is not on record here.

Assay [1] deals with T1, PCSK9Δhelix (Homo sapiens, UniProt Q8NBP7).
T1 construct: Human PCSK9 construct M1-Q692 with an engineered TEV site (residue deletion Y166, R167); made in house; host or cells: CHO
T1 sequence (Q8NBP7 with tags, fused parts or gaps limits assumed): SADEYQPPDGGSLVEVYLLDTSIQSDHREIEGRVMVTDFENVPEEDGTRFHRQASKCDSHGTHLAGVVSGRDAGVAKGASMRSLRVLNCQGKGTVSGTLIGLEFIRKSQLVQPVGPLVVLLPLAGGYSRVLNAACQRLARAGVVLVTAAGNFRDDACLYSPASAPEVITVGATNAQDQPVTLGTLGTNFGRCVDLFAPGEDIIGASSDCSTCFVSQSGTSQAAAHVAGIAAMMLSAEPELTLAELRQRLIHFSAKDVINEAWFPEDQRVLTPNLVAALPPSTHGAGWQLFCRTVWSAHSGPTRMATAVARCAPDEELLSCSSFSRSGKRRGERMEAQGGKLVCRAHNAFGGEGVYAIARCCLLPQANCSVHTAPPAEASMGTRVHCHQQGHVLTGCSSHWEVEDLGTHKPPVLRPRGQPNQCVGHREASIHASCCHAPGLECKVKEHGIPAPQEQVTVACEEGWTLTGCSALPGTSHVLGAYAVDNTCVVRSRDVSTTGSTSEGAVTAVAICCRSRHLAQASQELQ
T1 sequence (Q8NBP7 31-152 partner limits assumed): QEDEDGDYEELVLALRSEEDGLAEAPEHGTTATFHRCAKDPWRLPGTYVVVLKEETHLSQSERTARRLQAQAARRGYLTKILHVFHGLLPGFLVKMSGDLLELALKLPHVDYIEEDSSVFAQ
Briefly: PCSK9Δhelix/Ab20 TR-FRET binding assay. To be noted: for IC50: TR-FRET, Example 7, read-out: PCSK9Δhelix/Ab20 IC50. A general note: TR-FRET usually uses a lanthanide donor and a delayed reading to cut background.

Assay [2] relates to His-EGF(A)-Fc. The experiment in a line: His-EGF(A)-Fc TR-FRET counterscreen. To be noted: counterscreen, Example 7.

As for `CC(=O)N[C@H](C(=O)N[C@H](C(=O)N[C@@H](Cc1ccccc1)C(=O)N[C@H](C(=O)N[C@@H](CO)C(=O)N[C@@H](Cc1c[nH]c2ccccc12)C(=O)N[C@@H](CCC(=O)O)C(=O)N[C@@H](CCC(=O)O)C(=O)N[C@@H](Cc1ccc(O)cc1)C(=O)N[C@@H](CC(C)C)C(=O)N[C@@H](CC(=O)O)C(=O)N[C@@H](Cc1c[nH]c2ccccc12)C(=O)N[C@H](C(=O)NCCCCCCC(=O)N[C@@H](CCCCN)C(=O)N[C@@H](CC(C)C)C(=O)N[C@@H](Cc1c[nH]c2ccccc12)C(=O)N[C@@H](CC(N)=O)C(=O)N[C@@H](CC(C)C)C(=O)NCC(=O)N[C@@H](CCCNC(=N)N)C(=O)N[C@H](C(N)=O)C(C)C)C(C)C)[C@@H](C)O)C(C)C)[C@@H](C)O` [Compound 16], the figures for the IC50 in assay [1] and in assay [2] were 28 nM and more than 50000 nM, respectively.
Take `CC(=O)N[C@H](C(=O)N[C@H](C(=O)N[C@@H](Cc1ccccc1)C(=O)N[C@H](C(=O)N[C@@H](CO)C(=O)N[C@@H](Cc1c[nH]c2ccccc12)C(=O)N[C@@H](CCC(=O)O)C(=O)N[C@@H](CCC(=O)O)C(=O)N[C@@H](Cc1ccc(O)cc1)C(=O)N[C@@H](CC(C)C)C(=O)N[C@@H](CC(=O)O)C(=O)N[C@@H](Cc1c[nH]c2ccccc12)C(=O)N[C@H](C(=O)NCCCCCC(=O)N[C@@H](CCCCN)C(=O)N[C@@H](CC(C)C)C(=O)N[C@@H](Cc1c[nH]c2ccccc12)C(=O)N[C@@H](CC(N)=O)C(=O)N[C@@H](CC(C)C)C(=O)NCC(=O)N[C@@H](CCCNC(=N)N)C(=O)N[C@H](C(N)=O)C(C)C)C(C)C)[C@@H](C)O)C(C)C)[C@@H](C)O` [Compound 18]: the IC50 is 40 nM in assay [1] and more than 50000 nM in assay [2].
For the compound `CC[C@H](C)[C@@H]1NC(=O)[C@H](CCCNC(=N)N)NC(=O)[C@H](CCC(N)=O)NC(=O)[C@H](CC(C)C)NC(=O)[C@H](CC(N)=O)NC(=O)[C@H](Cc2c[nH]c3ccccc23)NC(=O)[C@@H]2CCCN2C(=O)[C@H](CC(C)C)NC(=O)[C@H](CCCNC(=N)N)NC(=O)[C@@H](NC(=O)CNC(=O)CNC(=O)[C@H](CO)NC(=O)CNC(=O)[C@@H](NC(=O)[C@H](Cc2c[nH]c3ccccc23)NC(=O)[C@H](CC(=O)O)NC(=O)[C@H](CC(C)C)NC(=O)[C@H](Cc2ccc(O)cc2)NC(=O)[C@H](CCC(=O)O)NC(=O)[C@H](CCC(=O)O)NC(=O)[C@H](Cc2c[nH]c3ccccc23)NC(=O)[C@H](CO)NC(=O)[C@@H](NC(=O)[C@H](Cc2ccccc2)NC(=O)[C@@H](NC(=O)[C@@H](NC(C)=O)[C@@H](C)O)C(C)C)[C@@H](C)O)C(C)C)CSSC[C@@H](C(N)=O)NC(=O)[C@@H]2CCCN2C(=O)[C@H](CC(C)C)NC(=O)CNC1=O` [Compound 25] (Ac-TVFTSWEEYLDWVGSGGCRLPWNLQRIGLPC-NH2; disulfide 18-31), the “inhibition in the PCSK9Δhelix/Ab20 binding assay” value in assay [1] is given as “potent inhibitors”. Also, the IC50 is 83 nM in assay [1] and more than 50000 nM in assay [2].
Turning to `CC[C@H](C)[C@@H]1NC(=O)[C@H](CCCNC(=N)N)NC(=O)[C@H](CCC(N)=O)NC(=O)[C@H](CC(C)C)NC(=O)[C@H](CC(N)=O)NC(=O)[C@H](Cc2c[nH]c3ccccc23)NC(=O)[C@@H]2CCCN2C(=O)[C@H](CC(C)C)NC(=O)[C@H](Cc2ccccc2)NC(=O)[C@@H](NC(=O)CNC(=O)CNC(=O)[C@H](CO)NC(=O)CNC(=O)[C@@H](NC(=O)[C@H](Cc2c[nH]c3ccccc23)NC(=O)[C@H](CC(=O)O)NC(=O)[C@H](CC(C)C)NC(=O)[C@H](Cc2ccc(O)cc2)NC(=O)[C@H](CCC(=O)O)NC(=O)[C@H](CCC(=O)O)NC(=O)[C@H](Cc2c[nH]c3ccccc23)NC(=O)[C@H](CO)NC(=O)[C@@H](NC(=O)[C@H](Cc2ccccc2)NC(=O)[C@@H](NC(=O)[C@@H](NC(C)=O)[C@@H](C)O)C(C)C)[C@@H](C)O)C(C)C)CSSC[C@@H](C(N)=O)NC(=O)[C@H](CC(C)C)NC(=O)[C@H](CC(C)C)NC(=O)CNC1=O` [Compound 38] (Ac-TVFTSWEEYLDWVGSGGCFLPWNLQRIGLLC-NH2; disulfide 18-31), in assay [1], the “inhibition in the PCSK9Δhelix/Ab20 binding assay” value is given as “potent inhibitors” and the IC50 was 3 nM. For the same compound, the IC50 in assay [2] is more than 50000 nM.
